# System: Cryptocaryon irritans
# Assay: Example 1: oral administration against parasitism of Cryptocaryon irritans on Pagrus major (1)
# Conditions: 50 mg trimethoprim/kg body weight/day orally three days; three days after the exposure
row,Molecule,"number of parasites (left gills, FIG. 1, control plot = one)"
1,COc1cc(Cc2cnc(N)nc2N)cc(OC)c1OC [trimethoprim],tend to be large

# System: Cryptocaryon irritans
# Assay: Examples 3 and 4: oral administration of single inhibitors and a combination, body length of Cryptocaryon irritans on Pagrus major (FIG. 4)
# Format: in vivo
# Conditions: 60 mg/kg fish body weight/day for three days; 60 parasites per plot; P≦0.01
# Source text: During the rearing period, 1.4 liters/min. of seawater was supplied. […] After exposure, seven fish each were moved into six 100-liter aquariums. During the rearing period, 1.4 liters/min. of seawater was supplied.
row,Molecule,"growth rate of parasites (body length as percentage of control plot), difference from control plot"
1,"N=C(N)c1ccc(OCCCCCOc2ccc(C(=N)N)cc2)cc1.O=S(=O)(O)CCO.O=S(=O)(O)CCO [PMD, isethionic acid pentamidine salt]",statistically significant difference
2,CN(Cc1cnc2nc(N)nc(N)c2n1)c1ccc(C(=O)N[C@@H](CCC(=O)O)C(=O)O)cc1 [methotrexate],statistically significant difference
3,COc1cc(Cc2cnc(N)nc2N)cc(OC)c1OC [trimethoprim],statistically significant difference

# Same assay, conditions: 300 mg/kg fish body weight/day for three days; 60 parasites per plot; P≦0.01
row,Molecule,"growth rate of parasites (body length as percentage of control plot), difference from control plot"
1,COc1cc(NS(=O)(=O)c2ccc(N)cc2)nc(OC)n1 [sulfadimethoxine],statistically significant difference
2,Cc1ccnc(NS(=O)(=O)c2ccc(N)cc2)n1 [sulfamerazine],statistically significant difference
3,Cc1nnc(NS(=O)(=O)c2ccc(N)cc2)s1 [sulfamethizole],statistically significant difference
4,COc1cc(NS(=O)(=O)c2ccc(N)cc2)ncn1 [sulfamonomethoxine],statistically significant difference
5,Cc1cc(NS(=O)(=O)c2ccc(N)cc2)nc(C)n1 [sulfisomidine],statistically significant difference
6,sulfisozole,statistically significant difference

# Source: patent US20100311759A1, “ANTIPARASITIC AGENT FOR FISH AND METHOD OF CONTROLLING PROLIFERATION OF FISH PARASITES” (NIPPON SUISAN KAISHA, LTD., priority 2007, published 2010)
